By IC50 is commonly meant the point on the concentration scale where inhibition reaches its midpoint. For orientation: inhibition means the relative decrease from the control value, in per cent.

The first assay concerns the target T1, Tyrosinase (Agaricus bisporus, UniProt O42713).
T1 sequence (O42713 whole entry): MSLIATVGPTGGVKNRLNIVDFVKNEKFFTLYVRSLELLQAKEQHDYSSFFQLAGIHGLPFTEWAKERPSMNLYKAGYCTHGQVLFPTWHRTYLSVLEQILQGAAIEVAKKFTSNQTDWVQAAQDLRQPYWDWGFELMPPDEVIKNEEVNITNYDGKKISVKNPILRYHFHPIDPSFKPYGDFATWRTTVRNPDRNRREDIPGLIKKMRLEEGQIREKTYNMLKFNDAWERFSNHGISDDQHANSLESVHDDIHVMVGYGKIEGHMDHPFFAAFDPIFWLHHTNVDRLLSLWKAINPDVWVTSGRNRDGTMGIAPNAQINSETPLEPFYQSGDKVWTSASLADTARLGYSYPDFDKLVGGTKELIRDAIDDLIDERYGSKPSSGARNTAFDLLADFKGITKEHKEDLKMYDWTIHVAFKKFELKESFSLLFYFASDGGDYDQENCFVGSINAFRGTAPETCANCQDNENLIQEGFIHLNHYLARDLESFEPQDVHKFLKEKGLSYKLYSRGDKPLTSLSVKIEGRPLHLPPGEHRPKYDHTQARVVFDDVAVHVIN
Nature of the assay: Inhibition of mushroom tyrosinase assessed as oxidation of L-dopa by spectrophotometric analysis.
Consider `COc1ccc2c(c1CCO)O[C@@H](c1ccc(O)cc1O)CC2`, for which the IC50 was 120 nM.
Still for that read-out and setting: with `CC(C)=CCc1c(O)ccc2c1O[C@H](c1ccc(O)cc1O)CC2` [MORUSYUNNANSINS F] the figure was 150 nM; with `COc1ccc2c(c1C/C=C(\C)CO)O[C@H](c1ccc(O)cc1O)CC2` [MORUSYUNNANSINS E], 1430 nM.

For another assay, the target named is T2, Tyrosinase (Agaricus bisporus) (UniProt O42713).
T2 sequence (whole entry): T1 sequence (O42713 whole entry)
Nature of the assay: Inhibition of mushroom tyrosinase assessed as oxidation of L-dopa at 25 uM by spectrophotometric analysis.
Turning to `COc1ccc(CCC(c2ccc(O)cc2O)c2cc([C@@H]3CCc4ccc(OC)c(CC=C(C)C)c4O3)c(O)cc2O)c(O)c1CC=C(C)C` (some centres not stated), the inhibition is under 50%.
On the same count and under the same terms, with `COc1ccc([C@@H]2CCc3ccc(O)c(CC=C(C)C)c3O2)c(O)c1` the figure was under 50%; with `CC(C)=CCc1c(O)ccc2c1O[C@H](c1ccc(O)cc1)CC2`, under 50%.
`COc1ccc(CCC(c2ccc(O)cc2O)c2cc([C@H]3CCc4ccc(OC)c(CC=C(C)C)c4O3)c(O)cc2O)c(O)c1CC=C(C)C` (some centres not stated): the inhibition is under 50%.

Source of the values: ChEMBL document CHEMBL1949579, “2-Arylbenzofuran, flavonoid, and tyrosinase inhibitory constituents of Morus yunnanensis” (J Nat Prod, 2012).
